Literature values as cited in article PMC8711562 (Drug Design, Development and Therapy, 2021).

Tested on: gastric pH
Details: beagles

COc1ccc2[nH]c([S+]([O-])Cc3ncc(C)c(OC)c3C)nc2c1 (stereo not shown) [Omeprazole]
gastric pH elevated to: 6
